Experimental findings from patent US10538498B2, “1,3,4-oxadiazole sulfonamide derivative compounds as histone deacetylase 6 inhibitor, and the pharmaceutical composition comprising the same” (Chong Kun Dang Pharmaceutical Corp., priority 2015, dated 2020) are described below.

The assay addresses T1, human recombinant HDAC6 (Homo sapiens, UniProt Q9UBN7).
T1 construct: purchased Calbiochem 382180
T1 sequence (Q9UBN7 1-1215): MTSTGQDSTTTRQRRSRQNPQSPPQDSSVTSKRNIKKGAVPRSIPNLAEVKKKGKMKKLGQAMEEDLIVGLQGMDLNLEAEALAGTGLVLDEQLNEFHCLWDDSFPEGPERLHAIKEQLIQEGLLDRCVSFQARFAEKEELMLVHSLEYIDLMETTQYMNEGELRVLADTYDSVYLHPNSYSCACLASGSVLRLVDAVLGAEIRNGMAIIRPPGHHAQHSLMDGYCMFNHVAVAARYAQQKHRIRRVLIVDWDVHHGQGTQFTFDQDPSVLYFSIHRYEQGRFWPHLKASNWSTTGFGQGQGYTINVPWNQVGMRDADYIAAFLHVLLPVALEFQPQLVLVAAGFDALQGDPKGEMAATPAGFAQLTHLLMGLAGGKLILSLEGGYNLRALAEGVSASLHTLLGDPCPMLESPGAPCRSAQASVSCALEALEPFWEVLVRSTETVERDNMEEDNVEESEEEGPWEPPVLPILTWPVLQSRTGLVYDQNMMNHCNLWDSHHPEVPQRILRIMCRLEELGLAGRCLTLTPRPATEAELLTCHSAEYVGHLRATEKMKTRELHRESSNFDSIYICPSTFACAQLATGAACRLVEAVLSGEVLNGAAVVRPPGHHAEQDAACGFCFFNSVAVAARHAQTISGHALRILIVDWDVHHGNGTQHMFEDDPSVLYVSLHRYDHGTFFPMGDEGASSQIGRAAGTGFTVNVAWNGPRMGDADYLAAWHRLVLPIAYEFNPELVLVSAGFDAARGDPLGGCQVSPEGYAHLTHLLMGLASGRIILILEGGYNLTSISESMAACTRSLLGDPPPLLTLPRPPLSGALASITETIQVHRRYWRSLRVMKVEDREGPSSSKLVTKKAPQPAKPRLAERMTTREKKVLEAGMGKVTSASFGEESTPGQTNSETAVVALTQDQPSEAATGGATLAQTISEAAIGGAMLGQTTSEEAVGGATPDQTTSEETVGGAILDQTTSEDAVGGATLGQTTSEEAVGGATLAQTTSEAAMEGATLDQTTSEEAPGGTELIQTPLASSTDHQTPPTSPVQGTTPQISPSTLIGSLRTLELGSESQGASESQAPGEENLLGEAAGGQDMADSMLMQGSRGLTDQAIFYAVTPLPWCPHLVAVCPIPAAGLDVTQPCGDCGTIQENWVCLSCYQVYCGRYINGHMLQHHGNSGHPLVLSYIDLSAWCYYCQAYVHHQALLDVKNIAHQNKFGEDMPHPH
Put plainly: HDAC6 enzyme activity inhibition assay (HDAC Fluorimetric Drug Discovery Kit). Conditions: for HDAC6 selectivity (fold): HDAC1 vs HDAC6; for IC50: same protocol as the HDAC1 enzyme activity test. It counts as biochemical. Put shortly: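 Human recombinant enzyme, 0.3 μg, incubated with 10 μM Fluor de Lys-SIRT1 substrate and 5-fold compound dilutions at 30° C for 60 min. Developer II added for 30 min, then fluorescence read (Ex 360/Em 460). IC50 values derived from the fluorescence data.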

One may read the IC50 as the concentration that inhibits the measured activity by half. As for `O=S1(=O)CCC(S(=O)(=O)N(Cc2ccc(-c3nnc(C(F)F)o3)cc2F)c2cccc(F)c2)CC1` [Compound 11256, N-(4-(5-(difluoromethyl)-1,3,4-oxadiazol-2-yl)-2-fluorobenzyl)-N-(3-fluorophenyl)tetrahydro-2H-thiopyran-4-sulfonamide 1,1-dioxide], the “HDAC6 selectivity (fold)” value is given as 7692 fold and the IC50 worked out at 13 nM.
For the compound `CC(=O)N1CCN(CCCS(=O)(=O)N(Cc2ccc(-c3nnc(C(F)F)o3)cc2)c2ccccc2)CC1` [Compound 11656, 3-(4-acetylpiperazin-1-yl)-N-(4-(5-(difluoromethyl)-1,3,4-oxadiazol-2-yl)benzyl)-N-phenylpropane-1-sulfonamide], the “HDAC6 selectivity (fold)” value is on record as 1587 fold and the IC50 stood at 63 nM.
In the same order, the values of `CN1Cc2ccc(N(Cc3ccc(-c4nnc(C(F)F)o4)cc3)S(C)(=O)=O)cc2C1` [Compound 11729, N-(4-(5-(difluoromethyl)-1,3,4-oxadiazol-2-yl)benzyl)-N-(2-methylisoindolin-5-yl)methanesulfonamide] are 56 fold and 1760 nM.
In the case of `CN1CCN(CCS(=O)(=O)N(Cc2ccc(-c3nnc(C(F)F)o3)cc2)c2ccccc2)CC1` [Compound 11630, N-(4-(5-(difluoromethyl)-1,3,4-oxadiazol-2-yl)benzyl)-2-(4-methylpiperazin-1-yl)-N-phenylethane-1-sulfonamide], the “HDAC6 selectivity (fold)” value was found to be 3225 fold and the IC50 came to 31 nM.
For `O=S(=O)(C1CC1)N(Cc1ccc(-c2nnc(C(F)F)o2)cc1F)c1ccccc1` [Compound 11291, N-(4-(5-(difluoromethyl)-1,3,4-oxadiazol-2-yl)-2-fluorobenzyl)-N-phenylcyclopropanesulfonamide], the “HDAC6 selectivity (fold)” value stood at 3226 fold and the IC50 was found to be 31 nM.
As to `O=S(=O)(CCN1Cc2cccc3cccc(c23)C1)N(Cc1ccc(-c2nnc(C(F)F)o2)cc1)c1ccccc1` [Compound 11843, 2-(1H-benzo[de]isoquinolin-2(3H)-yl)-N-(4-(5-(difluoromethyl)-1,3,4-oxadiazol-2-yl)benzyl)-N-phenylethane-1-sulfonamide], the “HDAC6 selectivity (fold)” value is given as 101 fold and the IC50 is 994 nM.
With `COc1ccccc1N(Cc1ccc(-c2nnc(C(F)F)o2)cc1F)S(C)(=O)=O` [Compound 11251, N-(4-(5-(difluoromethyl)-1,3,4-oxadiazol-2-yl)-2-fluorobenzyl)-N-(2-methoxyphenyl)methanesulfonamide], the “HDAC6 selectivity (fold)” value turned out to be 1563 fold and the IC50 was 64 nM.
In the same order, the values of `O=S(=O)(CCN(Cc1ccccc1)Cc1ccccc1)N(Cc1ccc(-c2nnc(C(F)F)o2)cc1)c1ccccc1` [Compound 11796, 2-(dibenzylamino)-N-(4-(5-(difluoromethyl)-1,3,4-oxadiazol-2-yl)benzyl)-N-phenylethane-1-sulfonamide] are 56 fold and 1780 nM.
In the case of `CS(=O)(=O)N(Cc1ccc(-c2nnc(C(F)F)o2)cc1F)c1cncnc1` [Compound 11195, N-(4-(5-(difluoromethyl)-1,3,4-oxadiazol-2-yl)-2-fluorobenzyl)-N-(pyrimidin-5-yl)methanesulfonamide], the “HDAC6 selectivity (fold)” value is on record as 1563 fold and the IC50 turned out to be 64 nM.
Turning to `O=S(=O)(CCCN1CCC(F)(F)C1)N(Cc1ccc(-c2nnc(C(F)F)o2)cc1)c1ccccc1` [Compound 11706, N-(4-(5-(difluoromethyl)-1,3,4-oxadiazol-2-yl)benzyl)-3-(3,3-difluoropyrrolidin-1-yl)-N-phenylpropane-1-sulfonamide], the “HDAC6 selectivity (fold)” value stood at 150 fold and the IC50 worked out at 662 nM.
In the same order, the values of `CCS(=O)(=O)N(Cc1ccc(-c2nnc(C(F)F)o2)cn1)c1ccc(F)c(Cl)c1` [Compound 11411, N-(3-chloro-4-fluorophenyl)-N-((5-(5-(difluoromethyl)-1,3,4-oxadiazol-2-yl)pyridin-2-yl)methyl)ethanesulfonamide] are 14286 fold and 7 nM.
Regarding `CCC(=O)N1CC(N2CCC(S(=O)(=O)N(Cc3ccc(-c4nnc(C(F)F)o4)cn3)c3cccc(Cl)c3)CC2)C1` [Compound 11782, N-(3-chlorophenyl)-N-((5-(5-(difluoromethyl)-1,3,4-oxadiazol-2-yl)pyridin-2-yl)methyl)-1-(1-propionylazetidin-3-yl)piperidine-4-sulfonamide], the “HDAC6 selectivity (fold)” value turned out to be 4032 fold and the IC50 was found to be 24.8 nM.
Regarding `CN(C)CCS(=O)(=O)N(Cc1ccc(-c2nnc(C(F)F)o2)cc1)c1ccccc1` [Compound 11797, N-(4-(5-(difluoromethyl)-1,3,4-oxadiazol-2-yl)benzyl)-2-(dimethylamino)-N-phenylethane-1-sulfonamide], the “HDAC6 selectivity (fold)” value was found to be 821 fold and the IC50 is 122 nM.
Regarding `CS(=O)(=O)N(Cc1ccc(-c2nnc(C(F)F)o2)cc1F)c1ccccc1` [Compound 11170, N-(4-(5-(difluoromethyl)-1,3,4-oxadiazol-2-yl)-2-fluorobenzyl)-N-phenylmethanesulfonamide], the “HDAC6 selectivity (fold)” value worked out at 7143 fold and the IC50 amounted to 14 nM.
Regarding `O=S(=O)(CCN1CCCOCC1)N(Cc1ccc(-c2nnc(C(F)F)o2)cc1)c1ccccc1` [Compound 11752, N-(4-(5-(difluoromethyl)-1,3,4-oxadiazol-2-yl)benzyl)-2-(1,4-oxazepan-4-yl)-N-phenylethane-1-sulfonamide], the “HDAC6 selectivity (fold)” value turned out to be 868 fold and the IC50 was determined as 115 nM.
In the same order, the values of `CN1CCN(CCCS(=O)(=O)N(Cc2ccc(-c3nnc(C(F)F)o3)cc2)c2ccccc2)CC1` [Compound 11658, N-(4-(5-(difluoromethyl)-1,3,4-oxadiazol-2-yl)benzyl)-3-(4-methylpiperazin-1-yl)-N-phenylpropane-1-sulfonamide] are 2500 fold and 40 nM.
As to `CN(C)CCCS(=O)(=O)N(Cc1ccc(-c2nnc(C(F)F)o2)cc1)c1ccccc1` [Compound 11685, N-(4-(5-(difluoromethyl)-1,3,4-oxadiazol-2-yl)benzyl)-3-(dimethylamino)-N-phenylpropane-1-sulfonamide], the “HDAC6 selectivity (fold)” value is listed as 5882 fold and the IC50 came out at 17 nM.
Turning to `NC(=O)[C@H]1CCCN1CCS(=O)(=O)N(Cc1ccc(-c2nnc(C(F)F)o2)cc1)c1ccccc1` [Compound 11813, (R)-1-(2-(N-(4-(5-(difluoromethyl)-1,3,4-oxadiazol-2-yl)benzyl)-N-phenylsulfamoyl)ethyl)pyrrolidine-2-carboxamide], the “HDAC6 selectivity (fold)” value came to 2932 fold and the IC50 was 34.1 nM.
Consider `O=S(=O)(c1cccnc1)N(Cc1ccc(-c2nnc(C(F)(F)F)o2)cc1)c1cccc(F)c1` [Compound 11155, N-(3-fluorophenyl)-N-(4-(5-(trifluoromethyl)-1,3,4-oxadiazol-2-yl)benzyl)pyridine-3-sulfonamide], for which the “HDAC6 selectivity (fold)” value is on record as 1250 fold and the IC50 amounted to 80 nM.
With `CS(=O)(=O)N(Cc1ccc(-c2nnc(C(F)F)o2)cc1F)c1ccc(Br)cc1` [Compound 11278, N-(4-bromophenyl)-N-(4-(5-(difluoromethyl)-1,3,4-oxadiazol-2-yl)-2-fluorobenzyl)methanesulfonamide], the “HDAC6 selectivity (fold)” value amounted to 1923 fold and the IC50 was 52 nM.
Consider `CS(=O)(=O)N(Cc1ccc(-c2nnc(C(F)(F)F)o2)cc1F)c1ccc(Br)cc1` [Compound 11277, N-(4-bromophenyl)-N-(2-fluoro-4-(5-(trifluoromethyl)-1,3,4-oxadiazol-2-yl)benzyl)methanesulfonamide], for which the “HDAC6 selectivity (fold)” value was 535 fold and the IC50 turned out to be 187 nM.
Consider `O=S(=O)(CCN1CCC(F)CC1)N(Cc1ccc(-c2nnc(C(F)F)o2)cn1)c1ccc(F)c(Cl)c1` [Compound 11786, N-(3-chloro-4-fluorophenyl)-N-((5-(5-(difluoromethyl)-1,3,4-oxadiazol-2-yl)pyridin-2-yl)methyl)-2-(4-fluoropiperidin-1-yl)ethane-1-sulfonamide], for which the “HDAC6 selectivity (fold)” value is recorded as 1828 fold and the IC50 is 54.7 nM.
